test system: HCV genotype-1a variant with glutamine 30 changed to glutamate in the NS5A protein; assay type: cell-based; conditions: test compound titrated with BMS-790052 fixed at 200 nM; genotype 1a Q30E replicon
Summary of the method: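 Synergy was assessed by combining several fixed amounts of an NS5A-targeting compound with a titration of the second compound of interest.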

| SMILES | Fold-Synergistic 1a (Q30E) [fold] |
| --- | --- |
| COC(=O)NC(C(=O)N1CCCC1c1ncc(-c2ccc(-c3ccc(-c4cnc(C(NC(=O)C5CCC(F)(F)CC5)C(C)(C)C)[nH]4)cc3)cc2)[nH]1)C(C)C (centres unmarked) [Compound B-192] | >10 |
| CC(C)[C@H](NC(=O)c1nccn1C)c1ncc(-c2ccc(-c3ccc(-c4cnc([C@@H](NC(=O)c5nccn5C)C(C)C)[nH]4)cc3)cc2)[nH]1 [Compound S-105] | <10 |
| CC(C)[C@H](NC(=O)C(C)(C)C)c1ncc(-c2ccc(-c3ccc(-c4cnc([C@@H](NC(=O)C(C)(C)C)C(C)C)[nH]4)c(OC(F)F)c3)cc2)[nH]1 [Compound Y-11] | >100 |
| CC(C)[C@H](NC(=O)c1c(F)cccc1Cl)c1ncc(-c2ccc(-c3ccc(-c4cnc([C@@H](NC(=O)c5c(F)cccc5Cl)C(C)C)[nH]4)cc3)cc2)[nH]1 [Compound S-6] | >100 |
| CCC(=O)N[C@H](c1ncc(-c2ccc(-c3ccc(-c4cnc([C@@H](NC(=O)CC)C(C)C)[nH]4)cc3)cc2)[nH]1)C(C)C [Compound S-31] | >100 |
| CC(C)N(CC(F)(F)F)C(=O)C(=O)N[C@H](c1nc(-c2ccc(-c3ccc(-c4c[nH]c([C@@H](NC(=O)C(=O)N(CC(F)(F)F)C(C)C)C(C)(C)C)n4)cc3)cc2)c[nH]1)C(C)(C)C [Compound W-66] | >100 |
| CC(C)[C@H](NC(=O)c1ccccc1)c1ncc(-c2ccc(-c3ccc(-c4cnc([C@@H]5CCCN5C(=O)c5ccccc5)[nH]4)cc3)cc2)[nH]1 [Compound Y-15] | >10 |
| CC(C)[C@H](NC(=O)C(C)(C)c1ccccc1)c1ncc(-c2ccc(-c3ccc(-c4cnc([C@@H](NC(=O)C(C)(C)c5ccccc5)C(C)C)[nH]4)cc3)cc2)[nH]1 [Compound S-47] | >100 |
| CC(C)(C(=O)N[C@H](c1nc(-c2ccc(-c3ccc(-c4cnc([C@@H](NC(=O)C(C)(C)C5CCCO5)C(C)(C)C)[nH]4)cc3)cc2)c[nH]1)C(C)(C)C)C1CCCO1 (single isomer, unassigned) [Compound B170] | >100 |
| COCC(=O)NC1(C(=O)N[C@H](c2nc(-c3ccc(-c4ccc(-c5c[nH]c([C@@H](NC(=O)C6(NC(=O)COC)CCCCC6)C(C)(C)C)n5)cc4)cc3)c[nH]2)C(C)(C)C)CCCCC1 [Compound W-263] | >100 |
| CC(C)[C@H](NC(=O)C(=O)C1(CO)CCC(F)(F)CC1)c1ncc(-c2ccc(-c3ccc(-c4cnc([C@@H](NC(=O)C(=O)C5(CO)CCC(F)(F)CC5)C(C)C)[nH]4)cc3)cc2)[nH]1 [Compound P-128] | >100 |
| CC(C)(C(=O)N[C@H](c1ncc(-c2ccc(-c3ccc(-c4cnc([C@@H](NC(=O)C(C)(C)C5=CCCCC5)C(C)(C)C)[nH]4)cc3)cc2)[nH]1)C(C)(C)C)C1=CCCCC1 [Compound B86] | >100 |
| O=C(c1ccc2c(c1)OCO2)N1CCC[C@H]1c1ncc(-c2ccc(-c3ccc(-c4cnc([C@@H]5CCCN5C(=O)c5ccc6c(c5)OCO6)[nH]4)cc3)cc2)[nH]1 [Compound S-121] | <10 |
| CC(C)(C)OC(=O)NC1(C(=O)N[C@H](c2nc(-c3ccc(-c4ccc(-c5c[nH]c([C@@H](NC(=O)C6(NC(=O)OC(C)(C)C)CC6(F)F)C(C)(C)C)n5)cc4)cc3)c[nH]2)C(C)(C)C)CC1(F)F (single isomer, unassigned) [Compound W-14] | >100 |
| COc1ccccc1C(O)CC(=O)N[C@H](c1nc(-c2ccc(-c3ccc(-c4c[nH]c([C@@H](NC(=O)C5(C(O)c6ccccc6OC)CC5)C(C)(C)C)n4)cc3)cc2)c[nH]1)C(C)(C)C (single isomer, unassigned) [Compound N-135C] | >100 |
| CN(C(=O)C1CCC(F)(F)CC1)[C@H](c1ncc(-c2ccc(-c3ccc(-c4cnc([C@@H](N(C)C(=O)C5CCC(F)(F)CC5)C(C)(C)C)[nH]4)cc3)cc2)[nH]1)C(C)(C)C [Compound B-206] | <10 |
| COC(=O)N(C)C1(C(=O)N[C@H](c2nc(-c3ccc(-c4ccc(-c5c[nH]c([C@@H](NC(=O)C6(N(C)C(=O)OC)CC6)C(C)(C)C)n5)cc4)cc3)c[nH]2)C(C)(C)C)CC1.O=C(O)C(F)(F)F.O=C(O)C(F)(F)F [Compound L-19] | >100 |
| CC(C)[C@H](NC(=O)C1CCC1)c1ncc(-c2ccc(-c3ccc(-c4cnc([C@@H](NC(=O)C5CCC5)C(C)C)[nH]4)cc3)cc2)[nH]1 [Compound S-22] | >100 |
| CC(C)[C@H](NC(=O)C(C)(C)Oc1ccccc1F)c1ncc(-c2ccc(-c3ccc(-c4cnc([C@@H](NC(=O)C(C)(C)Oc5ccccc5F)C(C)C)[nH]4)cc3)cc2)[nH]1 [Compound Y-33] | >100 |
| CC(C)(C)[C@H](NC(=O)C(=O)N1CCCCC1)c1nc(-c2ccc(-c3ccc(-c4c[nH]c([C@@H](NC(=O)C(=O)N5CCCCC5)C(C)(C)C)n4)cc3)cc2)c[nH]1 [Compound W-11] | >100 |
| CC(C)(C(=O)N[C@H](c1nc(-c2ccc(-c3ccc(-c4cnc([C@@H](NC(=O)C(C)(C)C5CCOC5)C(C)(C)C)[nH]4)cc3)cc2)c[nH]1)C(C)(C)C)C1CCOC1 (some centres unmarked) [Compound B-168] | >100 |
| CC(C)(C)[C@H](NC(=O)C1CCC(F)(F)CC1)c1nc2ccc(C#Cc3ccc4nc([C@@H](NC(=O)C5CCC(F)(F)CC5)C(C)(C)C)[nH]c4c3)cc2[nH]1 [Compound B38] | >100 |
| CC(C)(C)C(NC(=O)C1CCCN1CC(F)(F)F)c1nc(-c2ccc(-c3ccc(-c4c[nH]c(C(NC(=O)C5CCCN5CC(F)(F)F)C(C)(C)C)n4)cc3)cc2)c[nH]1 [Compound L-52] | >100 |
| CC(C)(C)OC(=O)NC1(C(=O)N[C@H](c2nc(-c3ccc(-c4ccc(-c5c[nH]c([C@@H](NC(=O)C6(NC(=O)OC(C)(C)C)CCCC6)C(C)(C)C)n5)cc4)cc3)c[nH]2)C(C)(C)C)CCCC1.O=C(O)C(F)(F)F.O=C(O)C(F)(F)F [Compound L-6] | >100 |
| CC(C)(C)[C@H](NC(=O)C(C)(C)C1(O)CCC(F)(F)CC1)c1ncc(-c2ccc(C#Cc3ccc4nc([C@@H](NC(=O)C(C)(C)C5(O)CCC(F)(F)CC5)C(C)(C)C)[nH]c4c3)cc2)[nH]1 [Compound B48A] | >100 |
| Cc1cc(CC(=O)N[C@H](c2ncc(-c3ccc(-c4ccc(-c5cnc([C@@H](NC(=O)Cc6cc(C)no6)C(C)C)[nH]5)cc4)cc3)[nH]2)C(C)C)on1 [Compound P-76] | >10 |
| CC1(C(=O)NC(c2nc(-c3ccc(-c4ccc(-c5c[nH]c(C(NC(=O)C6(C)CCCO6)C(C)(C)C)n5)cc4)cc3)c[nH]2)C(C)(C)C)CCCO1.O=C(O)C(F)(F)F.O=C(O)C(F)(F)F (mixture of isomers) [Compound L-69] | >100 |
| CN(C(=O)OC(C)(C)C)C1(C(=O)N2CCC(C)(C)C2c2nc(-c3ccc(-c4ccc(-c5c[nH]c(C6N(C(=O)C7(N(C)C(=O)OC(C)(C)C)CC7)CCC6(C)C)n5)cc4)cc3)c[nH]2)CC1 (centres unmarked) [Compound W-226] | >10 |
| O=C(C1Cc2ccccc2O1)N1CCC[C@H]1c1ncc(-c2ccc(-c3ccc(-c4cnc([C@@H]5CCCN5C(=O)C5Cc6ccccc6O5)[nH]4)cc3)cc2)[nH]1 (some centres unmarked) [Compound S-157] | >10 |
